{"source": "patent US20200299251A1", "about": "“FURAN SKELETON-CONTAINING IMINOGUANIDINE DERIVATIVE AS WELL AS PREPARATION AND APPLICATION THEREOF” (SUN YAT-SEN UNIVERSITY, priority 2017, published 2020)", "key": {"[1]": {"test": "Thermogravimetry infrared experiment", "type": "physicochemical", "details": "10 K/min", "method": "The temperature range was 25-800° C., and the heating rate was 10 K/min. […] It can be seen from FIG. 9B that this molecule can release water molecules and carbon dioxide molecules under the heating condition, and water molecules and carbon dioxide molecules are nearly released at the same time."}, "[2]": {"type": "physicochemical"}, "[3]": {"test": "Differential scanning calorimetric experiment", "type": "physicochemical", "details": "30-200° C., 10 K/min"}, "[4]": {"test": "Water solubility of FuBIG salts, UV absorbance of saturated aqueous solutions", "details": "saturated aqueous solution, UV absorbance at 368 nm", "procedure": "The absorbance of the above concentration gradients was determined under this wavelength, and standard curves were plotted to obtain a curve equation Y=14705×−0.0825 (as shown in FIG. 13B).\nIt was known that the pKa of HCO3^− was 10.32."}, "[5]": {"test": "Equilibrium constants and enthalpy changes of the process of absorbing and releasing carbon dioxide", "type": "physicochemical"}, "[6]": {"test": "Release of H2O and CO2 by heating in watch glass under normal pressure (weight loss)", "type": "physicochemical", "method": "The weight-lost solid was dissolved into water, carbon dioxide gas was introduced, and the above substances were stirred for lh to separate out a yellow solid.\nThe weight was 2.6 g, and weight loss was 29.7%. The weight-lost solid was dissolved into water, carbon dioxide gas was introduced, and the above substances were stirred for 1 h to separate out a yellow solid.\nThe weight was 2.46 g, and weight loss was 33.7%. The weight-lost solid was dissolved into water, carbon dioxide gas was introduced, and the above substances were stirred for lh to separate out a yellow solid.\nThe weight was 2.45 g, and weight loss was 33.7%. The weight-lost solid was dissolved into water, carbon dioxide gas was introduced, and the above substances were stirred for lh to separate out a yellow solid."}, "[7]": {"test": "Determination of pKa by pH titration with NaOH", "type": "physicochemical", "method": "0.077 g of FUBIG hydrochloride and 0.585 g of NaCl were weighed, the volume was metered to 50 mL with ultrapure water, and 26 μL of HCl (36%) was dropwise added. The mixed solution was stirred at 25° C. until the temperature was stabilized. The pH meter was calibrated respectively using potassium hydrogen phthalate (pH 4.00) buffer, mixed phosphate buffer (pH 6.86), sodium tetraborate buffer (pH 9.18), and then titration was conducted with 0.1M NaOH solution. After each titration, the system was stabilized after waiting for 7min, and then the next titration was conducted. The volume and pH value of each titration were recorded.\nPlot was made according to the ph-V (mL). […] The same method was used to obtain: 15° C., pKa1=7.79, pKa2=8.90; at 20° C., pKa1=7.68, pKa2=8.82; at 30° C., pKa1=7.49, pKa2=8.66; at 35° C., pKa1=7.31, pKa2=8.59 (as shown in Table 3)."}}}
{"smiles": "N=C(N)NN=Cc1ccc(C=NNC(=N)N)o1.O.O.O.O.O=C(O)O", "values": [{"measurement": "temperature at which the weight loss rate is the maximum", "setting": "[1]; 25-800° C.", "result": 100, "unit": "°C"}, {"measurement": "temperature at which water and carbon dioxide molecules are completely lost", "setting": "[1]; 25-800° C.", "result": 165, "unit": "°C"}, {"measurement": "weight loss", "setting": "[1]; at 165° C.", "result": 36.31, "unit": "%"}, {"measurement": "pH of saturated aqueous solution", "setting": "[2]; pH meter", "result": 8.48}, {"measurement": "concentration of carbonate ion [CO3^2−] in the saturated solution", "setting": "[2]; saturated aqueous solution, pH 8.48", "result": "1.3(3)×10^−4 M"}, {"measurement": "temperature range of release of carbon dioxide and water (DSC)", "setting": "[3]", "result": "97.89-109.13 °C"}, {"measurement": "Solubility(FuBIG cation concentration, M)", "setting": "[4]", "result": "9.3 (4)×10^−3 M"}, {"measurement": "Enthalpy change ΔH", "setting": "[5]; FuBIGH2(CO3)(H2O)4 precipitate", "result": -24.276, "unit": "kcal/mol"}, {"measurement": "Equilibrium constant K", "setting": "[5]; FuBIGH2(CO3)(H2O)4 precipitate", "result": "1.63 × 10^7"}, {"measurement": "weight loss", "setting": "[6]; heated for 5 h at 100° C.", "result": 33.6, "unit": "%"}, {"measurement": "weight loss", "setting": "[6]; heated for 12 h at 70° C.", "result": 29.7, "unit": "%"}, {"measurement": "weight loss", "setting": "[6]; heated for 12 h at 120° C.", "result": 33.7, "unit": "%"}, {"measurement": "weight loss", "setting": "[6]; heated for 12 h at 180° C.", "result": 33.7, "unit": "%"}]}
{"smiles": "Cl.N=C(N)NN=Cc1ccc(C=NNC(=N)N)o1", "values": [{"measurement": "Solubility(FuBIG cation concentration, M)", "setting": "[4]", "result": "0.74 (6) M"}]}
{"smiles": "N=C(N)N/N=C/c1ccc(/C=N/NC(=N)N)o1", "note": "[FuBIG]", "values": [{"measurement": "pKa1", "setting": "[7]; 15° C.", "result": 7.79}, {"measurement": "pKa2", "setting": "[7]; 15° C.", "result": 8.90}, {"measurement": "pKa1", "setting": "[7]; 20° C.", "result": 7.68}, {"measurement": "pKa2", "setting": "[7]; 20° C.", "result": 8.82}, {"measurement": "pKa1", "setting": "[7]; 25° C.", "result": 7.57}, {"measurement": "pKa2", "setting": "[7]; 25° C.", "result": 8.71}, {"measurement": "pKa1", "setting": "[7]; 30° C.", "result": 7.49}, {"measurement": "pKa2", "setting": "[7]; 30° C.", "result": 8.66}, {"measurement": "pKa1", "setting": "[7]; 35° C.", "result": 7.31}, {"measurement": "pKa2", "setting": "[7]; 35° C.", "result": 8.59}, {"measurement": "melting point", "result": "244 to 246", "unit": "°C"}, {"measurement": "Enthalpy change ΔH", "setting": "[5]; FuBIG dissolution", "result": 11.76, "unit": "kcal/mol"}, {"measurement": "Equilibrium constant K", "setting": "[5]; FuBIG dissolution", "result": "4.03 × 10^−1"}, {"measurement": "Enthalpy change ΔH", "setting": "[5]; FuBIG protonation", "result": 11.01, "unit": "kcal/mol"}, {"measurement": "Equilibrium constant K", "setting": "[5]; FuBIG protonation", "result": "1.91 × 10^−12"}, {"measurement": "Enthalpy change ΔH", "setting": "[5]; Total CO2 absorbing process", "result": -27.75, "unit": "kcal/mol"}, {"measurement": "Equilibrium constant K", "setting": "[5]; Total CO2 absorbing process", "result": "5.97 × 10^4"}, {"measurement": "Enthalpy change ΔH", "setting": "[5]; Total CO2 releasing process", "result": 50.026, "unit": "kcal/mol"}]}
{"smiles": "N=C(N)NN=Cc1ccc(C=NNC(=N)N)o1.O.O.O=[N+]([O-])O.O=[N+]([O-])O", "values": [{"measurement": "Solubility(FuBIG cation concentration, M)", "setting": "[4]", "result": "3.3 (2)×10^−2 M"}]}
{"smiles": "N=C(N)NN=Cc1ccc(C=NNC(=N)N)o1.O=S(O)O", "values": [{"measurement": "Solubility(FuBIG cation concentration, M)", "setting": "[4]", "result": "1.4 (2)×10^−3 M"}]}
